In US10738028B2, “Spiro three-membered ring, spiro five-membered ring peptide deformylase inhibitor and use thereof in antibacteria and anti-tumor” (priority 2016, dated 2020):
≈ marks a conversion by molar mass, not a printed value.

Tests used:
[1] = test system: HCT-116 colorectal cancer cell line; assay: CCK-8 proliferation inhibition; format: cell-based; conditions: Homo sapiens, HCT-116, 72 h, read-out: HCT116 inhibition rate/%
Summary of the method: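 Cells seeded at 2000 cells/well, cultured overnight at 37 °C, 5% CO2, then exposed to compound (DMSO; control 1‰ DMSO) for 72 h in McCoy's 5A with 10% newborn bovine serum. Viability read with 1:10 diluted CCK-8.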

[2] = test system: methicillin-sensitive Staphylococcus aureus (MSSA); assay: MIC, two-fold agar dilution (CLSI), clinical isolates; format: cell-based
Summary of the method: (§1)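 Following the American Clinical and Laboratory Standards Institute procedure, agar two-fold dilution served to determine minimum inhibitory concentrations.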

[3] = test system: methicillin-sensitive Staphylococcus epidermidis (MSSE); assay: as above; format: cell-based
Summary of the method: as §1

[4] = test system: methicillin-resistant Staphylococcus aureus (MRSA); assay: as above; format: cell-based
Summary of the method: as §1

[5] = test system: methicillin-resistant Staphylococcus epidermidis (MRSE); assay: as above; format: cell-based
Summary of the method: as §1

[6] = test system: Escherichia coli (including ESBLs, non-ESBLs); assay: as above; format: cell-based
Summary of the method: as §1

[7] = test system: Enterococcus faecalis (EFA); assay: as above; format: cell-based
Summary of the method: as §1

[8] = test system: methemoglobin in blood samples of three healthy volunteers; assay: Toxicity on methemoglobin in vitro (whole blood with S9 and NADPH, absorbance at 630 nm); format: cell-based, human
Procedure: Because PDF inhibitors such as LBM415 and GSK1322322 can produce active species such as aromatic hydroxylamine and aromatic hydrazines in metabolic process, and cause human methemoglobinemia. To this end, continuous wavelength method was adopted in this invention to scan the absorption spectrum of blood samples in the wavelength range of 500 to 700 nm in the ultraviolet-visible spectrophotometer, and the contents of methemoglobin in blood samples of three healthy volunteers were calculated, after being effected by the synthesized compounds.
Experimental materials: Nicotinamide adenine dinucleotide phosphate (NADPH) reduction system: glucose-6-disodium phosphate, nicotinamide adenine dinucleoside phosphate and glucose-6-phosphate dehydrogenase (purchased from Shanghai yuanye Bio-Technology Co., Ltd) were added to 1 mL of phosphate buffer solution (PBS, pH 7.4), and the mixture was shaked in a shaker type water bath at 37° C. for 10 min, and then cooled to 0° C. Mixed human hepatocytes fraction S9 was purchased from Xenotech (20 mg S9 protein/1 mL suspension medium). Compounds were prepared to stock solution at a concentration of 50 mM, which was stored at −20° C. for use. Dapsone was used as positive control experimental reagent, which was purchased from Sigma Aldrich. 1% w/v triton X-100 was self-prepared. Blood samples were collected using Vacutainer tubes containing EDTA anticoagulants (BD, Franklin Lakes, USA), which were sampled from three healthy volunteers and used immediately after sampling.
Preparation of incubation system for blood samples and drugs: 250 μL of incubation system was consist of 220 μL of whole blood, 25 μL of S9 (final concentration: 2 mg S9 protein/mL incubation solution), 2.5 μL of NADPH form system (final concentration: 10 mM G-6-P, 1 mM NADP, 7.5 Units/mL) and 2.5 μL of stock solution of a compound (final concentration 500 μM). […] of incubation system was placed in an Eppendorf tube and incubated for 5 hours at 37° C. in water bath.
Determination of the content of methemoglobin: 60 μL of an incubated sample was taken and lysed with 3.0 mL of 1% Triton X-100. The content of methemoglobin (MetHb) was measured by an ultraviolet-visible spectrophotometer, with the Triton X-100 solution used as blank control. A sample was placed in a cuvette, 1 minute later, the spectrums of the sample in the wavelength range from 500 nm to 700 nm were recorded. The sample was added with 2 mg of potassium ferricyanide, and was allowed to stay stationary for 2 minutes for completely oxidization of ferrous iron in the sample, and standard spectrum of methemoglobin with saturated potassium ferricyanide. The percentage of methemoglobin formation (MetHb %) was obtained by the ratio of absorbance at 630 nm. MetHb %=(A′−AB′)/AM′, wherein, A′ was the total absorbance of the sample at 630 nm, AB′ was the base absorbance of the reduced blood in the sample at 630 nm, and AM′ was the absorbance of oxidized blood with saturated potassium ferricyanide at 630 nm.

[9] = MIC in vitro anti-bacterial experiments, Gram-positive bacteria; format: cell-based; conditions: read-out: minimum inhibitory concentration against Gram-positive bacteria
From the text: 1. The invention adopts the two-fold agar dilution method recommended by the operating procedure of antimicrobial susceptibility testing set by American Clinical and Laboratory Standards Institute (CLSI) to determine the Minimum Inhibitory Concentration (MIC) of the test samples against the tested strains.

CCCC[C@H](CN(O)C=O)C(=O)N1CC2(CC2)C[C@H]1C(=O)Nc1cc(C(C)(C)C)on1 [Example 3]
inhibition at 30 µM [1]: 2% | MIC (anti-bacterial activity) ([2]; strain MSSA 14-1): 0.125 µg/mL (≈ 0.288 µM) | MIC (anti-bacterial activity) ([2]; strain MSSA 14-2): 0.125 µg/mL (≈ 0.288 µM) | MIC (anti-bacterial activity) ([2]; strain MSSA 14-3): 0.25 µg/mL (≈ 0.575 µM) | MIC (anti-bacterial activity) ([2]; strain MSSA 14-4): 0.06 µg/mL (≈ 0.138 µM) | MIC (anti-bacterial activity) ([3]; strain MSSE 14-1): 0.03 µg/mL (≈ 0.069 µM) | MIC (anti-bacterial activity) ([3]; strain MSSE 14-2): 0.125 µg/mL (≈ 0.288 µM) | MIC (anti-bacterial activity) ([3]; strain MSSE 14-3): 0.015 µg/mL (≈ 0.0345 µM) | MIC (anti-bacterial activity) ([3]; strain MSSE 14-4): 0.015 µg/mL (≈ 0.0345 µM) | MIC (anti-bacterial activity) ([4]; strain MRSA 14-1): 0.06 µg/mL (≈ 0.138 µM) | MIC (anti-bacterial activity) ([4]; strain MRSA 14-2): 0.06 µg/mL (≈ 0.138 µM) | MIC (anti-bacterial activity) ([4]; strain MRSA 14-4): < 0.008 µg/mL | MIC (anti-bacterial activity) ([4]; strain MRSA 14-5): 0.06 µg/mL (≈ 0.138 µM) | MIC (anti-bacterial activity) ([4]; strain printed MRSA 14-1 (second line of that name, r23, before MRSE 14-2)): 0.03 µg/mL (≈ 0.069 µM) | MIC (anti-bacterial activity) ([5]; strain MRSE 14-2): 0.03 µg/mL (≈ 0.069 µM) | MIC (anti-bacterial activity) ([5]; strain MRSE 14-3): 0.015 µg/mL (≈ 0.0345 µM) | MIC (anti-bacterial activity) ([5]; strain MRSE 14-4): 0.03 µg/mL (≈ 0.069 µM) | MIC (anti-bacterial activity) ([6]; strain ECO+ 14-1): 1 µg/mL (≈ 2.3 µM) | MIC (anti-bacterial activity) ([6]; strain ECO+ 14-2): 64 µg/mL (≈ 147 µM) | MIC (anti-bacterial activity) ([6]; strain ECO− 14-1): 64 µg/mL (≈ 147 µM) | MIC (anti-bacterial activity) ([6]; strain ECO− 14-2): 64 µg/mL (≈ 147 µM) | MIC (anti-bacterial activity) ([7]; strain EFA 14-1): 0.5 µg/mL (≈ 1.15 µM) | MIC (anti-bacterial activity) ([7]; strain EFA 14-2): 0.5 µg/mL (≈ 1.15 µM) | MIC (anti-bacterial activity) ([7]; strain EFA 14-3): 0.5 µg/mL (≈ 1.15 µM) | MIC (anti-bacterial activity) ([7]; strain EFA 14-5): > 128 µg/mL | MetHb % (n = 3) ([8]; 500 μM compound, whole blood + S9 + NADPH, 5 hours at 37° C.): 3.33 ± 0.06% | probability of methemoglobin formation in blood compared with the control drugs LBM415 and GSK1322322 ([8]; toxicity test in vitro, in words): lower probability of methemoglobin formation in blood | MIC [9]: < 0.008 µg/mL
